According to patent US4183848A, “Analgesic polypeptide” (American Home Products Corporation, priority 1977, dated 1980):
Where a SMILES comes first, the peptide text is derived from it. [ ]: non-standard residue; d: D form. Aib = CC(C)(N)C(=O)O

Experiments:
rat tail flick test = rat tail flick test (method of D-Amour and Smith), analgesic activity; format: in vivo
Excerpt: The representative polypeptide of this invention Tyr-D-Ala-Gly-Phe-2-MeAla-NH2, gave the following results in the reference standard rat tail flick test: […]

[1] = intracerebroventricular administration; cited from earlier work
guinea pig ileum = settings: cited from earlier work
[2] = peripheral administration; cited from earlier work
mouse vas deferens = settings: cited from earlier work
rats = settings: injection in the brain ventricle in rats; fully reversible by naloxone; cited from earlier work
opiate receptor = settings: brain homogenates; cited from earlier work

Compound: CC(=O)O.C[C@@H](NC(=O)[C@@H](N)Cc1ccc(O)cc1)C(=O)NCC(=O)N[C@@H](Cc1ccccc1)C(=O)NC(C)(C)C(N)=O [Tyr-D-Ala-Gly-Phe-2-MeAla-NH2, L-Tyrosyl-D-Alanylglycyl-L-Phenylalanyl-2-Methylalaninamide acetate] (H-Y[dA]GF[Aib]-NH2)
- No. showing analgesia/No. tested (rat tail flick test; intravenous 1.0 milligram/kilogram, 15 minutes after administration): 6/6
- No. showing analgesia/No. tested (rat tail flick test; intravenous 1.0 milligram/kilogram, 30 minutes after administration): 4/6
- No. showing analgesia/No. tested (rat tail flick test; intravenous 1.0 milligram/kilogram, 60 minutes after administration): 3/6
- No. showing analgesia/No. tested (rat tail flick test; intravenous 2.5 milligram/kilogram, 15 minutes after administration): 5/6
- No. showing analgesia/No. tested (rat tail flick test; intravenous 2.5 milligram/kilogram, 30 minutes after administration): 5/6
- No. showing analgesia/No. tested (rat tail flick test; intravenous 2.5 milligram/kilogram, 60 minutes after administration): 2/6
- No. showing analgesia/No. tested (rat tail flick test; intravenous 5.0 milligram/kilogram, 15 minutes after administration): 5/5
- No. showing analgesia/No. tested (rat tail flick test; intravenous 5.0 milligram/kilogram, 30 minutes after administration): 4/5
- No. showing analgesia/No. tested (rat tail flick test; intravenous 5.0 milligram/kilogram, 60 minutes after administration): 2/5
- No. showing analgesia/No. tested (rat tail flick test; intravenous .5 milligram/kilogram, 15 minutes after administration): 0/6
- No. showing analgesia/No. tested (rat tail flick test; intravenous .5 milligram/kilogram, 30 minutes after administration): 1/6
- No. showing analgesia/No. tested (rat tail flick test; intravenous .5 milligram/kilogram, 60 minutes after administration): 1/6
- No. showing analgesia/No. tested (rat tail flick test; subcutaneous 5.0 milligram/kilogram, 30 minutes after administration): 3/6
- No. showing analgesia/No. tested (rat tail flick test; subcutaneous 5.0 milligram/kilogram, 60 minutes after administration): 1/6
- No. showing analgesia/No. tested (rat tail flick test; subcutaneous 5.0 milligram/kilogram, 90 minutes after administration): 2/6
- No. showing analgesia/No. tested (rat tail flick test; subcutaneous 5.0 milligram/kilogram, 120 minutes after administration): 0/6
- No. showing analgesia/No. tested (rat tail flick test; subcutaneous 10.0 milligram/kilogram, 30 minutes after administration): 6/6
- No. showing analgesia/No. tested (rat tail flick test; subcutaneous 10.0 milligram/kilogram, 60 minutes after administration): 5/6
- No. showing analgesia/No. tested (rat tail flick test; subcutaneous 10.0 milligram/kilogram, 90 minutes after administration): 2/6
- No. showing analgesia/No. tested (rat tail flick test; subcutaneous 10.0 milligram/kilogram, 120 minutes after administration): 1/6

Compound: Tyr-D-Ala-Gly-Phe-D-Leu
- activity when administered intracerebroventricularly [1]: activity

Compound: H-Tyr-Gly-Gly-Phe-Met-OH [methionine-enkephalin]
- block of electrically evoked contractions (guinea pig ileum): mimic the ability of morphine to block electrically evoked contractions
- activity when administered peripherally [2]: inactive
- block of electrically evoked contractions (mouse vas deferens): mimic the ability of morphine to block electrically evoked contractions
- analgesia (rats): profound analgesia
- inhibition of stereospecific receptor binding of 3H-naloxone (opiate receptor): inhibit

Compound: H-Tyr-Gly-Gly-Phe-Leu-OH [leucine-enkephalin]
- block of electrically evoked contractions (guinea pig ileum): mimic the ability of morphine to block electrically evoked contractions
- activity when administered peripherally [2]: inactive
- block of electrically evoked contractions (mouse vas deferens): mimic the ability of morphine to block electrically evoked contractions
- analgesia (rats): profound analgesia
- inhibition of stereospecific receptor binding of 3H-naloxone (opiate receptor): inhibit
